From patent publication US20260001844A1, “COMPOUNDS AND METHODS FOR THE TREATMENT AND PREVENTION OF HIV” (priority 2022, published 2026)
Read-outs that look alike come from different tables or passages of the source.

Experiments:
[1] = tested on: HIV-1CH58TF infected primary CD4+ T cells; test: ADCC FACS-based assay with HIV+ plasma, HIV-1CH58TF infected cells; format: cell-based, human; conditions: for Susceptibility of HIV-1CH58TF infected cells to ADCC mediated by HIV+ plasma (in words): 50 μM compound, plasma 1:1000; for % ADCC (CH58): Table 1, approximate values, HIV+ plasma 1/1,000, compound 50 μM
[2] = tested on: HIV-1JRFL infected primary CD4+ T cells; test: Anti-CoRBS 17b mAb binding to infected cells (flow cytometry), HIV-1JRFL; format: cell-based, human; conditions: 50 μM compound; p24+ cells
Procedure: (§1) FIG. 4. Anti-CoRBS Ab binding. Anti-CoRBS Ab-17b binding to (A) HIV-1CH58TF, (B) HIV-1JRFL (C) or HIV-1AD8 infected primary CD4+ T cells was done in the presence of 50 μM of the indicated CD4mcs or the same volume of vehicle (DMSO). The median fluorescence intensity (MFI) of 17b binding is reported for the productively-infected cell (p24+) population. Data shown are the mean±SD of at least three independent experiments. Statistical significance was evaluated using an un-paired t test (*, p<0.05; **, p<0.01; ***, p<0.001; ****, p<0.0001; ns, not significant).
The ability of the compounds to expose the co-receptor binding site (CoRBS) were tested by measuring binding of the anti-CoRBS 17b mAb to infected cells. Briefly, primary CD4+ T cells were infected with HIV-1CH58TF, HIV-1JRFL or HIV-1AD8. Two days later, infected cells were co-incubated with 50 μM (+)-BNM-III-170, (S)-MCG-IV-210, TFH-070-A6, TFH-I-116-D1, ZXC-I-090, ZXC-I-092, DL-I-101 (ZXC-I-257), and DL-I-102 (ZXC-I-258) or the same volume of DMSO, and the 17b interaction was measured by flow cytometry after intracellular anti-p24 to identify the infected cell population. […] Defined by the sensitivity to anti-body-mediated neutralization (tier-1, 2 and 3), Tier-2 viruses (HIV-1JRFL and HIV-1AD8) are representative of biologically relevant circulating HIV-1 strains which are moderately neutralized by neutralizing antibodies. Weak neutralizing antibodies, or first generation CD4mc, prevent the infection of viruses from tier-1 but not those from tier-2 or tier-3. […] A similar phenotype was observed when using HIV-1AD8 infected cells (FIG. 4C).
The anti-CoRBS 17b mAb was used alone or in combination with different com-pounds for cell-surface staining. Plasma from different HIV-infected donors were collected, heat-inactivated and conserved. Alexa Fluor 647 conjugated Goat anti-human antibodies (Invitrogen, Waltham, MA, USA) were used as secondary Abs.
Cell-surface staining was performed. Primary CD4 T cells were isolated from healthy donors and infected with HIV-1CH58TF, HIV-1JRFL or HIV-1AD8. Binding of HIV-1-infected cells by plasma (1:1000 dilution) or 17b mAb (5 μg/mL) in the presence or absence of 50 μM compounds was performed 48 h after infection. Cells were then incubated at 37° C. for 1 h followed by adding anti-human Alexa Fluor-647 (Invitrogen) secondary Abs for 20 min. Cells were then stained intracellularly for HIV-1 p24, using the Cytofix/Cytoperm Fixation/Permeabilization Kit (BD Biosciences, Mississauga, ON, Canada) and the fluorescent anti-p24 mAb (PE-conjugated anti-p24, clone KC57; Beckman Coulter/Immunotech). The percentage of infected cells (p24+ cells) was determined by gating the live cell population on the basis of the Aqua-Vivid viability dye staining. Samples were analyzed on an LSRII cytometer (BD Biosciences), and data analysis was performed using FlowJo vX.0.7 (Tree Star, Ashland, OR, USA).

VSV-G pseudovirus = test: microbe, parasite or virus in culture; format: cell-based; conditions: read-out: IC50 VSV-G pseudovirus
[3] = tested on: HIV-1CH58TF infected primary CD4+ T cells; test: Cell-surface staining with HIV+ plasma, HIV-1CH58TF infected cells; format: cell-based, human; conditions: 50 μM compound; plasma 1:1000
HIV-1AD8 = test: Viral neutralization in TZM-bl cells (luciferase), HIV-1AD8; format: cell-based; conditions: read-out: IC50 HIV-1AD8
HIV-1CH58TF = test: Viral neutralization in TZM-bl cells (luciferase), HIV-1CH58TF; format: cell-based
HIV-1JRFL = test: Viral neutralization in TZM-bl cells (luciferase), HIV-1JRFL; format: cell-based
[4] = tested on: HIV-1AD8 infected primary CD4+ T cells; test: Cell-surface staining with HIV+ plasma, HIV-1AD8 infected cells; conditions: 50 μM compound; plasma 1:1000
[5] = tested on: HIV-1AD8 infected primary CD4+ T cells; test: ADCC FACS-based assay with HIV+ plasma, HIV-1AD8 infected cells; format: cell-based, human; conditions: 50 μM compound; plasma 1:1000
[6] = tested on: HIV-1JRFL infected primary CD4+ T cells; test: ADCC FACS-based assay with HIV+ plasma, HIV-1JRFL infected cells; format: cell-based, human; conditions: for % ADCC (JR-FL): Table 1, approximate values
[7] = tested on: HIV-1CH58TF infected primary CD4+ T cells; test: Anti-CoRBS 17b mAb binding to infected cells (flow cytometry), HIV-1CH58TF; format: cell-based, human; conditions: 50 μM compound; p24+ cells
Procedure: as §1
The ability of the compounds to expose the co-receptor binding site (CoRBS) were tested by measuring binding of the anti-CoRBS 17b mAb to infected cells. […] Two days later, infected cells were co-incubated with 50 μM (+)-BNM-III-170, (S)-MCG-IV-210, TFH-070-A6, TFH-I-116-D1, ZXC-I-090, ZXC-I-092, DL-I-101 (ZXC-I-257), and DL-I-102 (ZXC-I-258) or the same volume of DMSO, and the 17b interaction was measured by flow cytometry after intracellular anti-p24 to identify the infected cell population. […]
Cell-surface staining was performed. […] The percentage of infected cells (p24+ cells) was determined by gating the live cell population on the basis of the Aqua-Vivid viability dye staining. Samples were analyzed on an LSRII cytometer (BD Biosciences), and data analysis was performed using FlowJo vX.0.7 (Tree Star, Ashland, OR, USA).

[8] = tested on: HIV-1JRFL infected primary CD4+ T cells; test: Cell-surface staining with HIV+ plasma, HIV-1JRFL infected cells; format: cell-based, human; conditions: 50 μM compound; plasma 1:1000
[9] = Table 2, average ± SD of at least three independent experiments, TZM-bl cells, read-out: IC50 HIV-1CH58TF
[10] = Human immunodeficiency virus 1, TZM-bl, read-out: IC50 (CH58)
[11] = Human immunodeficiency virus 1, TZM-bl, read-out: IC50 (JR-FL)
[12] = Human immunodeficiency virus 1, TZM-bl
[13] = Human immunodeficiency virus 1, TZM-bl, read-out: IC50 HIV-1JRFL

| Compound | Susceptibility of HIV-1CH58TF infected cells to ADCC mediated by HIV+ plasma (in words) [1] | Exposure of the co-receptor binding site (17b mAb binding), HIV-1JRFL infected cells [2] | IC50 (VSV-G pseudovirus; Pseudovirus, TZM-bl) [µM] | HIV+ plasma binding to HIV-1AD8 infected cells [4] | % ADCC (CH58) [1] [%] | IC50 (HIV-1CH58TF; [10]) [µM] | IC50 (HIV-1JRFL; [11]) [µM] | % ADCC (JR-FL) [6] [%] | IC50 (HIV-1JRFL; [13]) [µM] | also measured |
| --- | --- | --- | --- | --- | --- | --- | --- | --- | --- | --- |
| O=C(O)CN1CCN(C(=O)N2C[C@H](CO)C[C@H](C(=O)Nc3ccc(Cl)c(F)c3)C2)CC1 (racemic) [DL-I-102, 2-(4-((3S,5R)-3-((4-chloro-3-fluorophenyl)carbamoyl)-5-(hydroxymethyl)piperidine-1-carbonyl)piperazin-1-yl)acetic acid] | also the case | successfully exposed the CoRBS | > 100 | – | – | – | – | – | – | – |
| CNCc1ccc2c(c1)C[C@H](CN=C(N)N)[C@H]2NC(=O)C(=O)Nc1ccc(Cl)c(F)c1.O=C(O)C(F)(F)F.O=C(O)C(F)(F)F [BNM-III-170, reference compound] | enhanced | – | – | – | – | – | – | – | – | Recognition of HIV-1CH58TF infected cells by HIV+ plasma [3]: enhanced the recognition; IC50 (HIV-1AD8; Table 2, average ± SD of at least three independent experiments, TZM-bl cells): 3.75 ± 1.3 µM; IC50 (HIV-1CH58TF; [9]): 0.033 ± 0.01 µM; IC50 (HIV-1JRFL; TZM-bl neutralization assay, read-out: IC50, neutralization of HIV-1JRFL): 13.5 µM; IC50 (VSV-G pseudovirus): > 100 µM |
| NCC(=O)N1CCN(C(=O)N2C[C@H](CO)C[C@H](C(=O)Nc3ccc(Cl)c(F)c3)C2)CC1 (racemic) [DL-I-101, (3S,5R)-N-(4-chloro-3-fluorophenyl)-1-(4-glycylpiperazine-1-carbonyl)-5-(hydroxymethyl)piperidine-3-carboxamide] | also the case | successfully exposed the CoRBS | > 100 | did | – | – | – | – | – | ADCC against HIV-1AD8 infected cells (in words) [5]: translated into ADCC |
| CN1CCN(C(=O)N2C[C@H](CN)C[C@H](C(=O)Nc3ccc(Cl)c(F)c3)C2)CC1 (stereo in doubt) [ZXC-I-090] | also the case | – | > 100 | – | ~3 | ~50 | 18 | ~2 | – | – |
| NCCNC(=O)N1CCC[C@H](C(=O)Nc2ccc(Cl)c(F)c2)C1 [MCG-IV-210, reference compound] | enhanced | – | > 100 | did not promote HIV+ plasma binding | – | – | – | – | > 100 | Recognition of HIV-1CH58TF infected cells by HIV+ plasma [3]: enhanced the recognition; Exposure of the co-receptor binding site (17b mAb binding), HIV-1CH58 infected cells [7]: exposed the CoRBS; IC50 (HIV-1AD8; [12]): > 100 µM; Inhibition of viral infection by HIV-1JRFL (in words) (HIV-1JRFL; TZM-bl neutralization assay): unable to inhibit viral infection |
| CN1CCN(C(=O)N2CCC[C@H](C(=O)Nc3ccc(Cl)c(F)c3)C2)CC1 [TFH-I-070-A6, (S)-4-(3-((4-chloro-3-fluorophenyl)carbamoyl)piperidine-1-carbonyl)-1-methylpiperazin-1-ium, 2,2,2-trifluoro-acetate] | also the case | successfully exposed the CoRBS | > 100 | did | 5 | 30 | 80 | 3 | 67.2 ± 30 | – |
| C[C@@H]1CN(C(=O)N2CCC[C@H](C(=O)Nc3ccc(Cl)c(F)c3)C2)C[C@H](C)N1C (stereo in doubt) [TFH-I-116-D1] | also the case | successfully exposed the CoRBS | > 100 | did | 5 | < 1 | 20 | 3 | – | IC50 (HIV-1AD8; [12]): 4.8 ± 1.7 µM; IC50 (HIV-1CH58TF; Human immunodeficiency virus 1, TZM-bl, read-out: IC50 HIV-1CH58TF): 0.065 ± 0.01 µM; IC50 (HIV-1JRFL; Human immunodeficiency virus 1, TZM-bl, read-out: IC50, neutralization of HIV-1JRFL (text, unit printed M)): 43.8 µM; ADCC against HIV-1AD8 infected cells (in words) [5]: translated into ADCC; ADCC against HIV-1JRFL infected cells compared to (S)-MCG-IV-210 (in words) ([6]; 50 μM compound, plasma 1:1000): not translated into enhanced ADCC; Recognition of HIV-1JRFL infected cells by antibodies from PLWH (HIV+ plasma) [8]: recognized infected cells |
| C[C@@H]1CN(C(=O)N2C[C@H](CN)C[C@H](C(=O)Nc3ccc(Cl)c(F)c3)C2)C[C@H](C)N1C (stereo in doubt) [ZXC-I-092] | also the case | successfully exposed the CoRBS | > 100 | – | ~3 | ~50 | 28 | ~2 | 54.2 ± 22.8 | IC50 (HIV-1CH58TF; [9]): 0.75 ± 0.12 µM |
